This note sets out measurements from patent publication US20250163104A1, “MACROCYCLIC IMMUNOMODULATORS” (priority 2021, published 2025).

Where a SMILES comes first, the peptide text is derived from it. Bridges are numbered along the chain shown (N, C = ends). [ ]: non-standard residue; d: D form. The star is where a group is joined. Phe(3-Ph) = N[C@@H](Cc1cccc(-c2ccccc2)c1)C(=O)O; Phe(4-COOH) = N[C@@H](Cc1ccc(C(=O)O)cc1)C(=O)O; Bip = N[C@@H](Cc1ccc(-c2ccccc2)cc1)C(=O)O; Phe(3-Me) = Cc1cccc(C[C@H](N)C(=O)O)c1; aIle = CC[C@@H](C)[C@H](N)C(=O)O; 3Pal = N[C@@H](Cc1cccnc1)C(=O)O; 4Pal = N[C@@H](Cc1ccncc1)C(=O)O; Cha = N[C@@H](CC1CCCCC1)C(=O)O; Cit = NC(=O)NCCC[C@H](N)C(=O)O; dCha = N[C@H](CC1CCCCC1)C(=O)O; Carboxymethyl = O=C(O)C*; Orn = NCCC[C@H](N)C(=O)O; Dab = NCC[C@H](N)C(=O)O; Dap = NC[C@H](N)C(=O)O

For the assay, the target named is T1, human PD-1 / PD-L1-Ig binding on Jurkat cell line over-expressing human PD-1 (Jurkat-PD-1) (Homo sapiens, UniProt Q15116).
T1 construct: expressed in transfected cells; host or cells: Jurkat
T1 sequence (Q15116 25-288): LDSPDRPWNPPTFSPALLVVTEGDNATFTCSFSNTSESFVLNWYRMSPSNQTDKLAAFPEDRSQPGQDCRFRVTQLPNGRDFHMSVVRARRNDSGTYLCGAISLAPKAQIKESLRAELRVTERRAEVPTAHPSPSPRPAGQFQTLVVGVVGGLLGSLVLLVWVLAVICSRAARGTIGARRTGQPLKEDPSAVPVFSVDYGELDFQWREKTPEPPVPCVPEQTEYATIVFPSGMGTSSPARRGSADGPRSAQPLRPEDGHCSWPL
The assay is described as follows: Jurkat-PD-1 Cell Binding High-Content Screening Assay (CBA). In kind it is cell-based. Particulars: Jurkat-PD-1 cells, PE-labeled PD-L1-Ig 20 nM final; read-out: Jurkat HPD1_PDL1 IC50. A digest of the protocol:
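Cell-bound PE-labeled PD-L1-Ig (20 nM final, 1 h) measured by high-content imaging after fixation and Hoechst 33342 counterstain. Compound was applied first for 2 h at 37° C. to Jurkat cells over-expressing human PD-1 in DMEM with 10% FCS.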
Regarding `CC(C)[C@@H]1NC(=O)[C@H](Cc2c[nH]c3ccccc23)NC(=O)[C@H](CC(=O)O)NC(=O)[C@H](Cc2ccc(C(=O)O)cc2)NC(=O)[C@H](Cc2ccc(OCC(=O)O)cc2)NC(=O)CSC[C@@H](C(=O)N[C@@H](C)C(N)=O)NC(=O)[C@H]([C@@H](C)O)NC(=O)[C@H](C(C)C)NC(=O)[C@H](CC2CCCCC2)NC(=O)[C@H](CCN)NC(=O)[C@@H](CC2CCCCC2)NC(=O)[C@H](CCCN)NC(=O)[C@H](CCCNC(N)=O)NC(=O)[C@H](Cc2ccc(-c3ccccc3)cc2)NC1=O` [Compound 1642] ({CH2CO}-Y(Carboxymethyl)[Phe(4-COOH)]DWV[Bip][Cit][Orn][dCha][Dab][Cha]VTCA-NH2; thioether N-14), the IC50 was determined as 0.0304 µM.

Regarding `CC(C)[C@@H]1NC(=O)[C@H](Cc2c[nH]c3ccccc23)NC(=O)[C@H](CC(=O)O)NC(=O)[C@H](Cc2ccc(OCC(=O)O)cc2)NC(=O)[C@H](CN)NC(=O)CSC[C@@H](C(=O)N[C@@H](C)C(N)=O)NC(=O)[C@H]([C@@H](C)O)NC(=O)[C@H](C(C)C)NC(=O)[C@H](CC2CCCCC2)NC(=O)[C@H](CCN)NC(=O)[C@@H](CC2CCCCC2)NC(=O)[C@H](CCCN)NC(=O)[C@H](CCCNC(N)=O)NC(=O)[C@H](Cc2ccc(-c3ccccc3)cc2)NC1=O` [Compound 1643] ({CH2CO}-[Dap]Y(Carboxymethyl)DWV[Bip][Cit][Orn][dCha][Dab][Cha]VTCA-NH2; thioether N-14), the IC50 was 0.0145 µM.

For the molecule `CC(C)[C@@H]1NC(=O)[C@H](Cc2c[nH]c3ccccc23)NC(=O)[C@H](CC(=O)O)NC(=O)[C@H](Cc2ccc(OCC(=O)O)cc2)NC(=O)[C@H](Cc2ccncc2)NC(=O)CSC[C@@H](C(=O)N[C@@H](C)C(N)=O)NC(=O)[C@H]([C@@H](C)O)NC(=O)[C@H](C(C)C)NC(=O)[C@H](CC2CCCCC2)NC(=O)[C@H](CCN)NC(=O)[C@@H](CC2CCCCC2)NC(=O)[C@H](CCCN)NC(=O)[C@H](CCCNC(N)=O)NC(=O)[C@H](Cc2ccc(-c3ccccc3)cc2)NC1=O` [Compound 1644] ({CH2CO}-[4Pal]Y(Carboxymethyl)DWV[Bip][Cit][Orn][dCha][Dab][Cha]VTCA-NH2; thioether N-14), the half-maximal inhibitory concentration (IC50) amounted to 0.0167 µM.

Turning to `CC(C)[C@@H]1NC(=O)[C@H](Cc2c[nH]c3ccccc23)NC(=O)[C@H](CC(=O)O)NC(=O)[C@H](Cc2ccncc2)NC(=O)[C@H](Cc2ccc(OCC(=O)O)cc2)NC(=O)CSC[C@@H](C(=O)N[C@@H](C)C(N)=O)NC(=O)[C@H]([C@@H](C)O)NC(=O)[C@H](C(C)C)NC(=O)[C@H](CC2CCCCC2)NC(=O)[C@H](CCN)NC(=O)[C@@H](CC2CCCCC2)NC(=O)[C@H](CCCN)NC(=O)[C@H](CCCNC(N)=O)NC(=O)[C@H](Cc2ccc(-c3ccccc3)cc2)NC1=O` [Compound 1645] ({CH2CO}-Y(Carboxymethyl)[4Pal]DWV[Bip][Cit][Orn][dCha][Dab][Cha]VTCA-NH2; thioether N-14), the 50% inhibitory concentration (IC50) came out at 0.0203 µM.

For the molecule `CC(C)[C@@H]1NC(=O)[C@H](Cc2c[nH]c3ccccc23)NC(=O)[C@H](CC(=O)O)NC(=O)[C@H](Cc2ccncc2)NC(=O)[C@H](CN)NC(=O)CSC[C@@H](C(=O)N[C@@H](C)C(N)=O)NC(=O)[C@H]([C@@H](C)O)NC(=O)[C@H](C(C)C)NC(=O)[C@H](CC2CCCCC2)NC(=O)[C@H](CCN)NC(=O)[C@@H](CC2CCCCC2)NC(=O)[C@H](CCCN)NC(=O)[C@H](CCCNC(N)=O)NC(=O)[C@H](Cc2ccc(-c3ccccc3)cc2)NC1=O` [Compound 1646] ({CH2CO}-[Dap][4Pal]DWV[Bip][Cit][Orn][dCha][Dab][Cha]VTCA-NH2; thioether N-14), the IC50 turned out to be 0.0281 µM.

`CC(C)[C@@H]1NC(=O)[C@H](Cc2c[nH]c3ccccc23)NC(=O)[C@H](CC(=O)O)NC(=O)[C@H](Cc2ccc(O)cc2)NC(=O)[C@H](CC(N)=O)NC(=O)CSC[C@@H](C(=O)N[C@@H](C)C(N)=O)NC(=O)[C@H]([C@@H](C)O)NC(=O)[C@H](C(C)C)NC(=O)[C@H](CC2CCCCC2)NC(=O)[C@H](CCN)NC(=O)[C@@H](CC2CCCCC2)NC(=O)[C@H](CCCN)NC(=O)[C@H](CCCNC(N)=O)NC(=O)[C@H](Cc2ccc(-c3ccccc3)cc2)NC1=O` [Compound 1647] ({CH2CO}-NYDWV[Bip][Cit][Orn][dCha][Dab][Cha]VTCA-NH2; thioether N-14): the half-inhibitory concentration (IC50) was determined as 0.0509 µM.

As to `Cc1cccc(C[C@@H]2NC(=O)[C@H](CC(=O)O)NC(=O)[C@H](Cc3ccc(O)cc3)NC(=O)[C@H](CC(N)=O)NC(=O)CSC[C@@H](C(N)=O)NC(=O)[C@H]([C@@H](C)O)NC(=O)[C@H](C(C)C)NC(=O)[C@H](CC(C)C)NC(=O)[C@H](CCN)NC(=O)[C@@H](CC(C)C)NC(=O)[C@H](CCCN)NC(=O)[C@H](C(C)C)NC(=O)[C@H](Cc3ccc(-c4ccccc4)cc3)NC(=O)[C@H](C(C)C)NC2=O)c1` [Compound 1648] ({CH2CO}-NYD[Phe(3-Me)]V[Bip]V[Orn][dL][Dab]LVTC-NH2; thioether N-14), the IC50 is 0.097 µM.

As to `Cc1cccc(C[C@@H]2NC(=O)[C@H](CC(=O)O)NC(=O)[C@H](Cc3ccc(OCC(=O)O)cc3)NC(=O)[C@H](Cc3ccc(OCC(=O)O)cc3)NC(=O)CSC[C@@H](C(N)=O)NC(=O)[C@H](CO)NC(=O)[C@H](C(C)C)NC(=O)[C@H](CC(C)C)NC(=O)[C@H](CCN)NC(=O)[C@@H](CC(C)C)NC(=O)[C@H](CCCN)NC(=O)[C@H](C(C)C)NC(=O)[C@H](Cc3ccc(-c4ccccc4)cc3)NC(=O)[C@H](CC(C)C)NC2=O)c1` [Compound 1649] ({CH2CO}-Y(Carboxymethyl)Y(Carboxymethyl)D[Phe(3-Me)]L[Bip]V[Orn][dL][Dab]LVSC-NH2; thioether N-14), the IC50 worked out at 0.0345 µM.

Turning to `Cc1cccc(C[C@@H]2NC(=O)[C@H](CC(=O)O)NC(=O)[C@H](Cc3ccc(OCC(=O)O)cc3)NC(=O)[C@H](Cc3ccc(OCC(=O)O)cc3)NC(=O)CSC[C@@H](C(=O)NCC(N)=O)NC(=O)[C@H](CO)NC(=O)[C@H](C(C)C)NC(=O)[C@H](CC3CCCCC3)NC(=O)[C@H](CCN)NC(=O)[C@@H](CC(C)C)NC(=O)[C@H](CCCN)NC(=O)[C@H](C(C)C)NC(=O)[C@H](Cc3ccc(-c4ccccc4)cc3)NC(=O)[C@H](CC(C)C)NC2=O)c1` [Compound 1650] ({CH2CO}-Y(Carboxymethyl)Y(Carboxymethyl)D[Phe(3-Me)]L[Bip]V[Orn][dL][Dab][Cha]VSCG-NH2; thioether N-14), the IC50 was determined as 0.0242 µM.

For the molecule `CC(C)C[C@H]1NC(=O)[C@H](CN)NC(=O)[C@H](C(C)C)NC(=O)[C@H](Cc2ccc(-c3ccccc3)cc2)NC(=O)[C@H](C(C)C)NC(=O)[C@H](Cc2c[nH]c3ccccc23)NC(=O)[C@H](CC(=O)O)NC(=O)[C@H](Cc2ccncc2)NC(=O)[C@H](CN)NC(=O)CSC[C@@H](C(=O)NCC(N)=O)NC(=O)[C@H](CO)NC(=O)[C@H](C(C)C)NC(=O)[C@H](CC2CCCCC2)NC(=O)[C@H](CC(N)=O)NC1=O` [Compound 1651] ({CH2CO}-[Dap][4Pal]DWV[Bip]V[Dap][dL]N[Cha]VSCG-NH2; thioether N-14), the IC50 amounted to 0.0174 µM.

With `CC(C)C[C@H]1NC(=O)[C@H](CN)NC(=O)[C@H](C(C)C)NC(=O)[C@H](Cc2ccc(-c3ccccc3)cc2)NC(=O)[C@H](C(C)C)NC(=O)[C@H](Cc2c[nH]c3ccccc23)NC(=O)[C@H](CC(=O)O)NC(=O)[C@H](Cc2ccc(OCC(=O)O)cc2)NC(=O)[C@H](CN)NC(=O)CSC[C@@H](C(=O)NCC(N)=O)NC(=O)[C@H](CO)NC(=O)[C@H](C(C)C)NC(=O)[C@H](CC2CCCCC2)NC(=O)[C@H](CC(N)=O)NC1=O` [Compound 1652] ({CH2CO}-[Dap]Y(Carboxymethyl)DWV[Bip]V[Dap][dL]N[Cha]VSCG-NH2; thioether N-14), the IC50 worked out at 0.0203 µM.

For the molecule `CC[C@@H](C)[C@@H]1NC(=O)[C@H](Cc2ccc(-c3ccccc3)cc2)NC(=O)[C@H](CC(C)C)NC(=O)[C@H](Cc2cccc(C)c2)NC(=O)[C@H](CC(=O)O)NC(=O)[C@H](Cc2ccc(OCC(=O)O)cc2)NC(=O)[C@H](Cc2ccc(OCC(=O)O)cc2)NC(=O)CSC[C@@H](C(N)=O)NC(=O)[C@H](CO)NC(=O)[C@H](C(C)C)NC(=O)[C@H](CC(C)C)NC(=O)[C@H](CCN)NC(=O)[C@@H](CC(C)C)NC(=O)[C@H](CCCN)NC1=O` [Compound 1653] ({CH2CO}-Y(Carboxymethyl)Y(Carboxymethyl)D[Phe(3-Me)]L[Bip][aIle][Orn][dL][Dab]LVSC-NH2; thioether N-14), the 50% inhibitory concentration (IC50) came to 0.0335 µM.

For `Cc1cccc(C[C@@H]2NC(=O)[C@H](CC(=O)O)NC(=O)[C@H](Cc3ccncc3)NC(=O)[C@H](CN)NC(=O)CSC[C@@H](C(N)=O)NC(=O)[C@H]([C@@H](C)O)NC(=O)[C@H](C(C)C)NC(=O)[C@H](CC(C)C)NC(=O)[C@H](CCN)NC(=O)[C@@H](CC(C)C)NC(=O)[C@H](CCCN)NC(=O)[C@H](CCCNC(N)=O)NC(=O)[C@H](Cc3cccc(-c4ccccc4)c3)NC(=O)[C@H](C(C)C)NC2=O)c1` [Compound 1654] ({CH2CO}-[Dap][4Pal]D[Phe(3-Me)]V[Phe(3-Ph)][Cit][Orn][dL][Dab]LVTC-NH2; thioether N-14), the half-maximal inhibitory concentration (IC50) worked out at 0.124 µM.

Turning to `Cc1cccc(C[C@@H]2NC(=O)[C@H](CC(=O)O)NC(=O)[C@H](Cc3ccc(OCC(=O)O)cc3)NC(=O)[C@H](Cc3cccnc3)NC(=O)CSC[C@@H](C(N)=O)NC(=O)[C@H]([C@@H](C)O)NC(=O)[C@H](C(C)C)NC(=O)[C@H](CC(C)C)NC(=O)[C@H](CCN)NC(=O)[C@@H](CC(C)C)NC(=O)[C@H](CCCN)NC(=O)[C@H](CCCNC(N)=O)NC(=O)[C@H](Cc3ccc(-c4ccccc4)cc3)NC(=O)[C@H](C(C)C)NC2=O)c1` [Compound 1655] ({CH2CO}-[3Pal]Y(Carboxymethyl)D[Phe(3-Me)]V[Bip][Cit][Orn][dL][Dab]LVTC-NH2; thioether N-14), the concentration for half-maximal inhibition (IC50) was 0.28 µM.
